According to publication PMC5512571 (Cancer cell, 2017):

Columns and labels:
Assay in all cases: in vitro kinase panel profiling
Format in all cases: biochemical
TNK1 = molecular target: T1, TNK1 (Homo sapiens, UniProt Q13470)
T1 sequence (Q13470 1-666): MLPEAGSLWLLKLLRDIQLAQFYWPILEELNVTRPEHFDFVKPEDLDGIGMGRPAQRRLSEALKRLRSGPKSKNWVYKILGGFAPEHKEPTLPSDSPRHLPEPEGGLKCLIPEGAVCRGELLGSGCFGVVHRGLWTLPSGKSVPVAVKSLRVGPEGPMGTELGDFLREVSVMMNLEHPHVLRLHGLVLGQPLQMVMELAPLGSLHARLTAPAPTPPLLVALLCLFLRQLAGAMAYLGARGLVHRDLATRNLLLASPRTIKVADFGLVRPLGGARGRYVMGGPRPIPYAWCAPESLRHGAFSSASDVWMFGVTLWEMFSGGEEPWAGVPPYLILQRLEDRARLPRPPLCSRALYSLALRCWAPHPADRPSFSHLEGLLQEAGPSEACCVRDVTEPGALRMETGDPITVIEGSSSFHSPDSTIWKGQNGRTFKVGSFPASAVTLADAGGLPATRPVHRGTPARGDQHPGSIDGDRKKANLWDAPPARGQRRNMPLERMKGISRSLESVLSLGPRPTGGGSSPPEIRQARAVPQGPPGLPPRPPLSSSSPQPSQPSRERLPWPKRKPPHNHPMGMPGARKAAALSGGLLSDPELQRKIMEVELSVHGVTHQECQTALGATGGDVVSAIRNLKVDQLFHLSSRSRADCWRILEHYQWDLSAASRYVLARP

NUAK1 = molecular target: T2, NUAK1 (Homo sapiens, UniProt O60285)
T2 sequence (O60285 1-661): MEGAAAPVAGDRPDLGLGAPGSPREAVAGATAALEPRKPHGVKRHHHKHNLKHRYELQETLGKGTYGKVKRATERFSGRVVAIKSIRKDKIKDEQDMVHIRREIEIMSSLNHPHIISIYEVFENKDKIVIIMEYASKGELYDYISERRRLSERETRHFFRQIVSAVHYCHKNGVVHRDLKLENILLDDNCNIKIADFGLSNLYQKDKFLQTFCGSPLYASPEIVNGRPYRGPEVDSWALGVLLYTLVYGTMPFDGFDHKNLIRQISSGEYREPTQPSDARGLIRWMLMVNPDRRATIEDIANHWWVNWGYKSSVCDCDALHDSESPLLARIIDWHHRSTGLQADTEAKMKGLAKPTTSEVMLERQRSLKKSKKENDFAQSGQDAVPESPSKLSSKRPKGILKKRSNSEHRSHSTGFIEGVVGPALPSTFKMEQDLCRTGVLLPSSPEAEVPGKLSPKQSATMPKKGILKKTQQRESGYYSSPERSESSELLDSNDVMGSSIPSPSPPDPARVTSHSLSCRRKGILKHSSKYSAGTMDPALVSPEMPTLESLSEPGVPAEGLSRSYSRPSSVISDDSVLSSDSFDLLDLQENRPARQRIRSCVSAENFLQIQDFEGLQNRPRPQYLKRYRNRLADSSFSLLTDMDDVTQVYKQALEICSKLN

JAK1 = JAK1 (Homo sapiens, UniProt P23458)
LRRK2 = LRRK2 (Homo sapiens, UniProt Q5S007)
FLT3 = FLT3 (Homo sapiens, UniProt P36888)
NUAK2 = molecular target: T3, NUAK2 (Homo sapiens, UniProt Q9H093)
T3 sequence (Q9H093 1-628): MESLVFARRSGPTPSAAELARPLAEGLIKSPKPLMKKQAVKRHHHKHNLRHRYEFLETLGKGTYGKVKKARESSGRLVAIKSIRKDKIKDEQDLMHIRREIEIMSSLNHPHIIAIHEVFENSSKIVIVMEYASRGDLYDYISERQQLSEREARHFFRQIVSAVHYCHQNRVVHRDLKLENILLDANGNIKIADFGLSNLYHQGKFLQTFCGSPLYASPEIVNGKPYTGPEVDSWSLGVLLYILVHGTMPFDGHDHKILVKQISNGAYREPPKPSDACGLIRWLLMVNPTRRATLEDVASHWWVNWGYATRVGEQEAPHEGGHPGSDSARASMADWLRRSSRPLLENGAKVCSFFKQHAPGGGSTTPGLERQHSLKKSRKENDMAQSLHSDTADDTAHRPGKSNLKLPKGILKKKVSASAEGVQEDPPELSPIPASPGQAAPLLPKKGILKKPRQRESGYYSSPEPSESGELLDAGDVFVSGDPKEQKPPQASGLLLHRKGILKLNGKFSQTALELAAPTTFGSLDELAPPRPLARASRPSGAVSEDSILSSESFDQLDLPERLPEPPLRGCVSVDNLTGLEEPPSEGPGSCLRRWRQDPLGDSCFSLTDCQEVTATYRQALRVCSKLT

JAK3 = molecular target: T4, JAK3 (Homo sapiens, UniProt P52333)
T4 sequence (P52333 1-1124): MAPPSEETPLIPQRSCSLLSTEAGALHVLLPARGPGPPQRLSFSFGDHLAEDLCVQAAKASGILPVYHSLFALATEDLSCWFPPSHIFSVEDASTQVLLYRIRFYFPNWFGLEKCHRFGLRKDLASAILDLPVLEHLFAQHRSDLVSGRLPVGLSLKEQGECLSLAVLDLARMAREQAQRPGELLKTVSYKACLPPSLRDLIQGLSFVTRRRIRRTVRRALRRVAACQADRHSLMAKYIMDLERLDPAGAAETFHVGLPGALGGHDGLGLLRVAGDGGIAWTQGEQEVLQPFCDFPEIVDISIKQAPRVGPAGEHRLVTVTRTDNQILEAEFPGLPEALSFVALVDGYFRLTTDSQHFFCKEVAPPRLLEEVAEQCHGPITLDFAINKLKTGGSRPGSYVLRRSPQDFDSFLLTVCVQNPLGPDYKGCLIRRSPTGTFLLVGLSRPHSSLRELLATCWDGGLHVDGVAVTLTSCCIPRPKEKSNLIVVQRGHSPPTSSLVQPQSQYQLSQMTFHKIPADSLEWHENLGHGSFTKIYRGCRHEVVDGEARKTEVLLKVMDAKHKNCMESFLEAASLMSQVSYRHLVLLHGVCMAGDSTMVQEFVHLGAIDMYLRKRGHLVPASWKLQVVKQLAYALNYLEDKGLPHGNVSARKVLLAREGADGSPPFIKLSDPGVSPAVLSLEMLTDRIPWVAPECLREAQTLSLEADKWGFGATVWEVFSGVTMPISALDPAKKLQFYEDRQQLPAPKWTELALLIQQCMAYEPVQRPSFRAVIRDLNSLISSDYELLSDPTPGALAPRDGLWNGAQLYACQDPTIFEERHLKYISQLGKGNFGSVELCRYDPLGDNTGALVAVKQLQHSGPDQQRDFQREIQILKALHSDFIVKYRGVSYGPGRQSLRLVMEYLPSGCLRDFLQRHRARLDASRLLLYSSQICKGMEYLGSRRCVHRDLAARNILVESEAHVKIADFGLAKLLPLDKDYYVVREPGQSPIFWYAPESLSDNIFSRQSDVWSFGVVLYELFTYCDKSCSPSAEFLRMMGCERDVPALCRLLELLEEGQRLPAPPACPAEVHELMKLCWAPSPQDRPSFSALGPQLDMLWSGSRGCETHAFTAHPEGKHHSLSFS

JAK2 = JAK2 (Homo sapiens, UniProt O60674)
TYK2 = TYK2 (Homo sapiens, UniProt P29597)

Measured: % inhibition at 250 nM

Sequence of JAK2 (O60674 whole entry): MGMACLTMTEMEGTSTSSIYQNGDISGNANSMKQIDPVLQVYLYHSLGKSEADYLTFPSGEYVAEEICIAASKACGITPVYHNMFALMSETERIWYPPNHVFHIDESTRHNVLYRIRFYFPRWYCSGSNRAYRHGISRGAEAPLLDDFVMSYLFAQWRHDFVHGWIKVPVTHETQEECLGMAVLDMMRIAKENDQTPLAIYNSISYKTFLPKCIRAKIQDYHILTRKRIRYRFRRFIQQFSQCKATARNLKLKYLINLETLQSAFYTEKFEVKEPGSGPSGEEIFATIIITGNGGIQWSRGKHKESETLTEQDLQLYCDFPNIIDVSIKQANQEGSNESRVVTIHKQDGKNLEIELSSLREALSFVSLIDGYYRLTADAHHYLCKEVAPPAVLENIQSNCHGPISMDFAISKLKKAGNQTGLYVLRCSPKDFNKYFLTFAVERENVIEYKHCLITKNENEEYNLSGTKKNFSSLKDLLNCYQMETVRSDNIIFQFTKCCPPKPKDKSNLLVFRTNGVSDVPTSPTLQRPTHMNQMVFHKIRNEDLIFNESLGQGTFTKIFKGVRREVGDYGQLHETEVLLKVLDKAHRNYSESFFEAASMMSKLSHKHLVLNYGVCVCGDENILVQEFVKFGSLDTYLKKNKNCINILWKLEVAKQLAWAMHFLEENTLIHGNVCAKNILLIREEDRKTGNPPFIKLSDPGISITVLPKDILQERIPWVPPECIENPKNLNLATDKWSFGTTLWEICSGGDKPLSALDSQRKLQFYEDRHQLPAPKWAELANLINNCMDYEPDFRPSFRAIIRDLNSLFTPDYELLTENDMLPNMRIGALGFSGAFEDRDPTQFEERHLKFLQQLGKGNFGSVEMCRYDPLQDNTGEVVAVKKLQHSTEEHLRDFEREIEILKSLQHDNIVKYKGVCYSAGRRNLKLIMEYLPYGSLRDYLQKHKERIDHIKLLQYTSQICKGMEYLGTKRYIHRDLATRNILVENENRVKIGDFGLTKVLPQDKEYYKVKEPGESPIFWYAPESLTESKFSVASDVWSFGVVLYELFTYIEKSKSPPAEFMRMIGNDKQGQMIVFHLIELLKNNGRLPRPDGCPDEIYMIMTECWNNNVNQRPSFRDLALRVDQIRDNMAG
Sequence of LRRK2 (Q5S007 whole entry): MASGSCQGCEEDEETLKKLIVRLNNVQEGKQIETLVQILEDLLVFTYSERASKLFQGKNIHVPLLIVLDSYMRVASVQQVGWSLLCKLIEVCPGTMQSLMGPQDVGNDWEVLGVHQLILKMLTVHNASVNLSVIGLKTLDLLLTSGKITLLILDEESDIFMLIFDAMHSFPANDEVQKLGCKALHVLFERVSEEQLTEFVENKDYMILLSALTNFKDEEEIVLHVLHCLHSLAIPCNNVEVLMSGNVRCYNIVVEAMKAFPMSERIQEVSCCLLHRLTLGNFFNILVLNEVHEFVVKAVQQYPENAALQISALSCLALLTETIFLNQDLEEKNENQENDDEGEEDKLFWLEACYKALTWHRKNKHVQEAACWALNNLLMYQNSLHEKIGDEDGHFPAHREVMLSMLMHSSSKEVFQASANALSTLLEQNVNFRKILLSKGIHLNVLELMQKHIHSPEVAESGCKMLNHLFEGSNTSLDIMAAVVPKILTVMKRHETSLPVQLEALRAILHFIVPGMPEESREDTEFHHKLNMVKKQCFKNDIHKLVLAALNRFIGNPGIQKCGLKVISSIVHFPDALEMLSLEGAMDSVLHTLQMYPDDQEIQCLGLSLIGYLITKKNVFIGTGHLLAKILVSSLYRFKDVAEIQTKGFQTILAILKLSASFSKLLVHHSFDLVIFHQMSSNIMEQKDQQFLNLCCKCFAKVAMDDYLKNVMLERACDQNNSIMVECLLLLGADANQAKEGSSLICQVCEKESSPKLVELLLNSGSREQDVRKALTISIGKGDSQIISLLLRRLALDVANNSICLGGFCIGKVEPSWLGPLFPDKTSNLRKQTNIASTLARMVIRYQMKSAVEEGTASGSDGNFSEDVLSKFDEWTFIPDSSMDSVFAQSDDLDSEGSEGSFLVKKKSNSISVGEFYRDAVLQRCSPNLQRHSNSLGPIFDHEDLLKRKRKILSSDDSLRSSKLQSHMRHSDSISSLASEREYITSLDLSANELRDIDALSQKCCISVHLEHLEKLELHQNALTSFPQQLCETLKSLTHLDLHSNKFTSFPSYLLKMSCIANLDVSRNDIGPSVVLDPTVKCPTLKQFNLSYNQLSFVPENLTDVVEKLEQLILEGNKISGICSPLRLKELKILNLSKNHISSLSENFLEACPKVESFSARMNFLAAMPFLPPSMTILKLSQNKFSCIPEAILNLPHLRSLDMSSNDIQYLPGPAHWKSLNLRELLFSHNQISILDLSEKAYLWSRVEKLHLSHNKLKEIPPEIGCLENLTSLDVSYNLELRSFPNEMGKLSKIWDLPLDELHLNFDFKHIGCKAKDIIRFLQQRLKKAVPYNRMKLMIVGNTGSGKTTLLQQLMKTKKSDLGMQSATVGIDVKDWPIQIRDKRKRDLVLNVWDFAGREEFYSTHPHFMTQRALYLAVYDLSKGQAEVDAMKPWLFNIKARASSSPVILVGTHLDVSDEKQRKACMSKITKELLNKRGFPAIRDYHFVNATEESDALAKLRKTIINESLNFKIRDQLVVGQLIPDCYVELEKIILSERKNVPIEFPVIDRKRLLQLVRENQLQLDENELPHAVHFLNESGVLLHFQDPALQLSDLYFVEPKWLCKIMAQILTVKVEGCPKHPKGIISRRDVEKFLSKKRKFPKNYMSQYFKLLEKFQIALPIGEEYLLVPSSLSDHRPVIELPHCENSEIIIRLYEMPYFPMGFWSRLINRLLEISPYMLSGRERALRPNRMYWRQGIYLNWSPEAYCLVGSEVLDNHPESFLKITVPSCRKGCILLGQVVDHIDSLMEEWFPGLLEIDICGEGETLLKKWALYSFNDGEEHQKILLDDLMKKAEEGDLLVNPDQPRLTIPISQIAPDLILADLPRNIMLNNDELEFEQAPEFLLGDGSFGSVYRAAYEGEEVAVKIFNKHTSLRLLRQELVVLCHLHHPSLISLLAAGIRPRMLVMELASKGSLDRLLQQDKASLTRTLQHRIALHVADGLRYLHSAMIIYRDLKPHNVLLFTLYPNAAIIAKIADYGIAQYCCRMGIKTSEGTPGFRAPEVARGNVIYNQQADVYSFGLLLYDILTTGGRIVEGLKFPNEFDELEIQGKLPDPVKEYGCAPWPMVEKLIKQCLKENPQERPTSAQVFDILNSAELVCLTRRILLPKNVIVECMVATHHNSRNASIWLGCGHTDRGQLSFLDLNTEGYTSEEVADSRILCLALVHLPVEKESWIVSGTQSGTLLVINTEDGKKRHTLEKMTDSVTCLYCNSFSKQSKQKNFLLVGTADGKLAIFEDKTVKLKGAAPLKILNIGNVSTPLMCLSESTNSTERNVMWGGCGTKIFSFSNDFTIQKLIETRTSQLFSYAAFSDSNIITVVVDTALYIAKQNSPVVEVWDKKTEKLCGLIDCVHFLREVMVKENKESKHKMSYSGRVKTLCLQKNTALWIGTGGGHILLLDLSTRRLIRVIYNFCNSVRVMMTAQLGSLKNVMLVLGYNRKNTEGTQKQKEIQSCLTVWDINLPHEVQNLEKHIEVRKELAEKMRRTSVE
Sequence of JAK1 (P23458 whole entry): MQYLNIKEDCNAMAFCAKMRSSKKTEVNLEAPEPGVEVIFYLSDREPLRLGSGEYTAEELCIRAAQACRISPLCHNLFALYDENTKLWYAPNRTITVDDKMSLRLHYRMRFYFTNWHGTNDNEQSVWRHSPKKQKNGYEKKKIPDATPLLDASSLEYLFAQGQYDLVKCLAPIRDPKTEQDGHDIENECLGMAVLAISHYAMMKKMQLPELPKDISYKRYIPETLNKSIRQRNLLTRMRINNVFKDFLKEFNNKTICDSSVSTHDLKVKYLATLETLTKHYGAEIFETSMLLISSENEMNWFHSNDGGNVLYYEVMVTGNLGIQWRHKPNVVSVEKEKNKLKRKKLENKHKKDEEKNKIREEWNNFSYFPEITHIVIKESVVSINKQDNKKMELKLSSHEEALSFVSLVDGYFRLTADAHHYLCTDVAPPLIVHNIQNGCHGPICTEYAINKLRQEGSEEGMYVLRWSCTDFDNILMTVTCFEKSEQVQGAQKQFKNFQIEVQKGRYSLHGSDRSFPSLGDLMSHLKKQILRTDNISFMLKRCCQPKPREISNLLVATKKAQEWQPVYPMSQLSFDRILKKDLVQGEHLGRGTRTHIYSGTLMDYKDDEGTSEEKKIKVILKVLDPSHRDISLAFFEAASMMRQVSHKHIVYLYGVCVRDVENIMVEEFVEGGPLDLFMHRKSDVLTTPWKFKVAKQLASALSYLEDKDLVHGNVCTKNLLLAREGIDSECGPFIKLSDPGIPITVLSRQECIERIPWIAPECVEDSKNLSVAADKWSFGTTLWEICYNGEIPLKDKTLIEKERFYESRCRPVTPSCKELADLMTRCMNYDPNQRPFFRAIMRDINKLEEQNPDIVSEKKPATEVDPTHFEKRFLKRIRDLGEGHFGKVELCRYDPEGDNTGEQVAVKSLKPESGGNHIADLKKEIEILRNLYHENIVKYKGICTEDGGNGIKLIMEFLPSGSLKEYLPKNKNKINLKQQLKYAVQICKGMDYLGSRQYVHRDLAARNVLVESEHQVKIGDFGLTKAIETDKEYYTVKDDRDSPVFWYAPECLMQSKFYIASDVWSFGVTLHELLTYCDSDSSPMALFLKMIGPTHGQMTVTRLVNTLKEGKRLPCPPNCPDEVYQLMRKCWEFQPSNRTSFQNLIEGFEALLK

CN1CCN(c2ccc(Nc3ncc(Cl)c(NC[C@H]4CCCO4)n3)cc2)CC1 [(R)-9bMS]
> 90: all assays above
